Experimental data from patent US11716994B2, “Combinations of Yersinia entomophaga and pesticides or other substances” (priority 2017, dated 2023).
Where “and” joins values, the source holds several entries; their conditions need not be identical. Equal entries are not always repeated. Where two headings read alike, the source gives them in different places.

Key:
[1] = test system: Yersinia entomophaga; assay: CFU counts after exposure of Yersinia entomophaga to insecticides; assay type: cell-based; conditions: 1 hour contact
How it was run: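 Insecticides at 1× (label-rate based) and 5× or 10× amounts were dried from ethyl acetate as a coat inside tubes. Diluted LB-grown Y. entomophaga culture (1 ml) was added and held 1 hour on the bench. Then 100 μl was plated in triplicate on LB and colonies were counted after 48 hours at 25° C.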

[2] = test system: diamondback moth; assay: whole plant or invertebrate; conditions: spinosad […]
Excerpt: (§1) These were set to dry for 1 hr.
as §1
These were set to dry for 1 hr. Cabbage disks were then dipped in either 1% Luria broth (LB) media solution (controls and thiacloprid alone treatments) or in 1% cell free filtrate from a culture Y. entomophaga isolate O24G3R (Y. entomophaga alone or in combination with thiacloprid treatments).

[3] = test system: fall armyworm; conditions: in vivo
[4] = test system: Colorado potato beetle; conditions: in vivo
[5] = test system: diamondback moth; conditions: in vivo
[6] = test system: cabbage looper; conditions: spinosad 7.5 mg/L
Protocol: (§3) To produce cell free filtrates, cultures of Yersinia entomophaga grown in LB medium were centrifuged at 11,448 (g) for 10 minutes. The supernatant was decanted from the centrifuged pellet and filtered through a 0.22 μm filter. Assays were performed to determine concentrations of Yen-TC (toxin complex) using ELISA, and chitinase by measuring chitinase activity on specific substrates. […] This was done to estimate relative potency of the cell free filtrates. Insects were first pre-screened with a range of dilutions of cell free filtrates to select a concentration that provided moderate activity. […] Based on these initial screens, undiluted cell free filtrate was used for cabbage looper, fall armyworm, black cutworm, and Colorado potato beetle. […] In each of the Examples below, this is expressed as 1%.
Cabbage leaf disks were dipped in either acetone (controls and Y. entomophaga alone treatments) or novaluron (Sigma 32419) at 1.0 mg/L in acetone. These were set to dry for 1 hr. […] After the cabbage disks had dried for 1 hr, a single 3rd instar cabbage looper was added to each individual cabbage disk. A total of 20 insects were evaluate for each treatment. Insects were observed daily and scored as live or dead.

[7] = test system: Colorado potato beetle; conditions: spinosad […]
Protocol: as §3
Tomato leaf disks were dipped in either acetone (controls and Y. entomophaga alone treatments) or thiacloprid (Sigma 37905) at 1 mg/L in acetone. These were set to dry for 1 hr. […] After the tomato disks had dried for 1 hr, a single 3rd instar Colorado potato beetle was added to each individual cabbage disk. A total of 20 insects were evaluate for each treatment. Insects were observed daily and scored as live or dead.

[8] = test system: fall armyworm; assay: Leaf disk mortality assay, Y. entomophaga cells with chemical insecticides
[9] = test system: diamondback moth; assay: as above; conditions: in vivo
[10] = test system: Colorado potato beetle; assay: Tomato leaf disk mortality assay, Y. entomophaga cells with chemical insecticides
[11] = test system: corn earworm; assay: Leaf disk mortality assay, Y. entomophaga cells with chemical insecticides; assay type: in vivo; parameters: mortality: dose or concentration left out as unconfirmed; conditions: for % Mort. Chem. / LT50 Chem.: corn earworm
Protocol: (§2) 50 μl suspensions of either acetone (controls and Y. entomophaga alone treatments) or of thiodicarb (Sigma 34375) at a concentration of 140 mg/L in acetone were then dropped onto each cabbage disk. These were set to dry for 1 hr. After the disks had dried, one 2nd instar corn earworm was added to each disk. A total of 12 insects were evaluated for each treatment.
as §2, with “chlorantraniliprole” for “thiodicarb”, “32510)” for “34375)”, “18” for “140”, “24” for “12”

[12] = test system: cabbage looper
[13] = test system: tobacco budworm; conditions: for LT50 (95% confidence intervals) in days: in vivo; for % Mort. Chem. / LT50 Chem.: tobacco budworm; for % Mort. Chem.: 1 DAT
[14] = test system: cabbage looper; assay: whole plant or invertebrate; conditions: Trichoplusia ni, foliar
[15] = test system: tobacco budworm; assay: whole plant or invertebrate; conditions: Heliothis virescens, foliar
[16] = 3rd instar, spinosad 25 mg/L, isolate O24G3R 1×10^5 cfu/mL
[17] = 3rd instar, spinosad 25 mg/L, isolate O348UX 1×10^5 cfu/mL
[18] = 24 h, read-out: % Mortality (1DAT)
[19] = 48 h, read-out: % Mortality (2DAT)
[20] = Chlorantraniliprole alone 18 mg/L

Question: What does the source list for Spinosad?
Answer: Average CFU ([1]; 0.2 mg insecticide): 523 CFU; Average CFU ([1]; 1.0 mg insecticide): 487 CFU; LT50 (95% confidence intervals) ([2]; 2nd instar diamondback moth, O43NEW filtrate 1%, alone or combined): 8.16 days; LT50 Chem. ([2]; Diamondback moth): 8.16 days; % Mortality (3DAT) [3]: 40%; % Mortality (3DAT) [4]: 15%; % Mortality (4DAT) [4]: 20%; % Mortality (5DAT) [4]: 40%; % Mortality (2DAT) [5]: 0%; % Mortality (3DAT) [5]: 10%; % Mortality (4DAT) [5]: 15%; % Mortality (7DAT) [5]: 40%; % Mortality (9DAT) [5]: 39%; % Mortality (11DAT) [5]: 65%; % Mortality (2DAT) ([6]; 3rd instar cabbage looper, O43NEW undiluted filtrate, alone or combined, 2 DAT, Abbott's corrected): 10%; % Mortality (5DAT) ([6]; 3rd instar cabbage looper, O43NEW undiluted filtrate, alone or combined, 5 DAT, Abbott's corrected): 25%; % Mortality (6DAT) ([6]; 3rd instar cabbage looper, O43NEW undiluted filtrate, alone or combined, 6 DAT, Abbott's corrected): 50%; % Mortality (8DAT) ([6]; 3rd instar cabbage looper, O43NEW undiluted filtrate, alone or combined, 8 DAT, Abbott's corrected): 55%; % Mortality (9DAT) ([6]; 3rd instar cabbage looper, O43NEW undiluted filtrate, alone or combined, 9 DAT, Abbott's corrected): 55%; LT50 Chem. ([6]; Cabbage Looper): 7.01 days; % Mort. Chem. ([6]; Cabbage Looper, 5 DAT): 25%; LT50 (95% confidence intervals) ([7]; 3rd instar Colorado potato beetle, O43NEW undiluted filtrate, alone or combined): 78.3 days; LT50 Chem. ([7]; Colorado potato beetle): 78.30 days; % Mortality (3DAT) [8, 16]: 80%; LT50 (95% confidence intervals) in days [8, 16]: 2.43 (2.08-2.84) days; % Mortality (3DAT) [8, 17]: 80%; LT50 (95% confidence intervals) in days [8, 17]: 2.43 (2.08-2.84) days; % Mort. Chem. ([8]; fall armyworm, Spinosad 25 mg/L, 3 DAT (row with 024G3R)): 80%; % Mort. Chem. ([8]; fall armyworm, Spinosad 25 mg/L, 3 DAT (row with O348UX)): 80%; LT50 Chem. ([8]; fall armyworm, Spinosad alone 25 mg/L): 4.09 days and 2.43 days; % Mort. Chem. ([8]; in vivo): 40%; LT50 (95% confidence intervals) in days ([8]; in vivo): 4.09 (3.67-4.55) days; LT50 (95% confidence intervals) [9]: 8.16 days; LT50 Chem. [9]: 8.16 days; LT50 Chem. ([10]; Colorado potato beetle, Spinosad alone […]): 6.01 days; LT50 (95% confidence intervals) in days ([10]; in vivo): 6.01 (4.93-7.28) days

Question: CS/C(C)=N\OC(=O)N(C)SN(C)C(=O)O/N=C(\C)SC [Thiodicarb] was tested. Which “LT50 (95% confidence intervals) in days” value ([11]; 2nd instar, thiodicarb 140 mg/mL, isolate O43NEW 1×10^7 cfu/mL) did it give?
Answer: 2.02 (1.60-2.50) days

Question: What about the mortality ([11]; Helicoverpa zea, foliar, 24 h, 2nd instar, thiodicarb, isolate O43NEW 1×10^7 cfu/mL, read-out: % Mortality (1DAT)) of the same molecule?
Answer: 0%

Question: What about the “% Mort. Chem.” value ([11]; Thiodicarb 140 mg/L, 1 DAT) of the same molecule?
Answer: 0%

Question: What about the “% Mort. Chem.” value ([11]; Thiodicarb 140 mg/L, 2 DAT) of the same molecule?
Answer: 33%

Question: What about the “LT50 Chem.” value ([11]; Thiodicarb alone 140 mg/L) of the same molecule?
Answer: 2.02 days

Question: What about the “LT50 Chem.” value ([12]; cabbage looper, Thiodicarb alone 140 mg/L) of the same molecule?
Answer: 1.40 days

Question: And the “% Mort. Chem.” value ([12]; in vivo)?
Answer: 25%

Question: What about the “LT50 (95% confidence intervals)” value ([12]; in vivo) of the same molecule?
Answer: 1.40 days

Question: What about the “LT50 (95% confidence intervals) in days” value [13] of the same molecule?
Answer: 1.98 (1.57-2.45) days

Question: What about the “% Mort. Chem.” value ([13]; Thiodicarb 140 mg/L) of the same molecule?
Answer: 25%

Question: What about the “LT50 Chem.” value ([13]; Thiodicarb alone 140 mg/L) of the same molecule?
Answer: 1.98 days

Question: What about the mortality at 140 µg/mL [14, 18] of the same molecule?
Answer: 25%

Question: And the mortality at 140 µg/mL [14, 19]?
Answer: 50%

Question: What about the mortality at 140 µg/mL [15, 18] of the same molecule?
Answer: 25%

Question: What about the mortality at 140 µg/mL [15, 19] of the same molecule?
Answer: 50%

Question: For CNC(=O)c1cc(Cl)cc(C)c1NC(=O)c1cc(Br)nn1-c1ncccc1Cl [Chlorantraniliprole], which “Average CFU” value ([1]; 0.15 mg insecticide) is on record?
Answer: 523 CFU

Question: And the “Average CFU” value ([1]; 2.0 mg insecticide)?
Answer: 387 CFU

Question: And the “LT50 (95% confidence intervals) in days” value ([11]; 2nd instar, chlorantraniliprole 18 mg/L, isolate O43NEW 1×10^5 cfu/mL)?
Answer: 3.29 (2.85-3.77) days

Question: What about the mortality at 18 µg/mL ([11]; Helicoverpa zea, foliar, 24 h, 2nd instar, chlorantraniliprole 18 mg/L, isolate O43NEW 1×10^5 cfu/mL, read-out: % Mortality (1DAT)) of the same molecule?
Answer: 0%

Question: And the mortality at 18 µg/mL ([11]; Helicoverpa zea, foliar, 48 h, 2nd instar, chlorantraniliprole 18 mg/L, isolate O43NEW 1×10^5 cfu/mL, read-out: % Mortality (2DAT))?
Answer: 0%

Question: What about the “% Mort. Chem.” value ([11]; Chlorantraniliprole 18 mg/L, 2 DAT (row with O43NEW 1 × 10^3)) of the same molecule?
Answer: 0%

Question: What about the “% Mort. Chem.” value ([11]; Chlorantraniliprole 18 mg/L, 2 DAT (row with O43NEW 1 × 10^5)) of the same molecule?
Answer: 0%

Question: What about the “LT50 Chem.” value [11, 20] of the same molecule?
Answer: 3.29 days and 3.44 days

Question: And the “% Mort. Chem.” value ([12]; cabbage looper, Chlorantraniliprole 18 mg/L, 1 DAT)?
Answer: 8%

Question: And the “LT50 Chem.” value ([12]; cabbage looper, Chlorantraniliprole alone 18 mg/L)?
Answer: 2.39 days

Question: And the “% Mort. Chem.” value ([12]; in vivo)?
Answer: 38%

Question: What about the “LT50 (95% confidence intervals) in days” value ([12]; in vivo) of the same molecule?
Answer: 2.39 (2.10-2.70) days

Question: And the “LT50 (95% confidence intervals) in days” value [13]?
Answer: 2.20 (1.91-2.53) days

Question: What about the “% Mort. Chem.” value ([13]; Chlorantraniliprole 18 mg/L) of the same molecule?
Answer: 8%

Question: And the “LT50 Chem.” value [13, 20]?
Answer: 2.20 days

Question: And the mortality at 18 µg/mL [14, 18]?
Answer: 8%

Question: What about the mortality at 18 µg/mL [14, 19] of the same molecule?
Answer: 38%

Question: What about the mortality at 18 µg/mL [15, 18] of the same molecule?
Answer: 8%

Question: And the mortality at 18 µg/mL [15, 19]?
Answer: 25%
